In brackets after ≈: the same amount, converted by molar mass. Activity calls are given as the source filed them. No rule for the calls is given here.
Assays:
[1] = system: Mycobacterium tuberculosis; assay: Antimycobacterial activity against Mycobacterium tuberculosis H37Rv ATCC 27294 in GAST medium after 1 week by microplate alamar blue assay; format: functional; details: H37Rv ATCC 27294, 168 h
[2] = system: Mycobacterium tuberculosis; assay: Antimycobacterial activity against Mycobacterium tuberculosis H37Rv ATCC 27294 in GAS medium after 1 week by microplate alamar blue assay; format: functional; details: H37Rv ATCC 27294, 168 h
[3] = system: Mycobacterium tuberculosis; assay: Antimycobacterial activity against Mycobacterium tuberculosis Erdman infected in BALB/c mouse assessed as reduction of bacterial load at 200 mg/kg, po qd for 5 days per week administered 60 days after infection measured after 85 days post infection; format: functional, organism-based; design: dose 200 mg/kg

Compound	MIC [1] [µM]	MIC [2] [µM]	Activity [3]
COc1ccccc1-c1nc(C(=O)OCc2ccccc2)co1	7.54 (≈ 2.33 µg/mL)	3.88 (≈ 1.2 µg/mL)	inactive
N#Cc1cccc(C2=N[C@H](C(=O)OCc3ccccc3)CO2)c1	75.1 (≈ 23 µg/mL)	47.2 (≈ 14.5 µg/mL)	inactive
O=C(OCc1ccccc1)[C@@H]1COC(c2cccc(F)c2)=N1	6.86 (≈ 2.05 µg/mL)	60.7 (≈ 18.2 µg/mL)	inactive
O=C(OCc1ccccc1)[C@@H]1COC(c2cccc(Cl)c2OCc2ccccc2)=N1	34 (≈ 14.3 µg/mL)	6.3 (≈ 2.66 µg/mL)	inactive
COc1cccc(C2=N[C@H](C(=O)OCc3ccccc3)CO2)c1	42.5 (≈ 13.2 µg/mL)	24.8 (≈ 7.72 µg/mL)	inactive
O=C(OCc1ccccc1)[C@@H]1COC(c2cccnc2Oc2ccccc2)=N1	> 128	58.8 (≈ 22 µg/mL)	inactive
Cc1oc(-c2ccccc2O)nc1C(=O)O	> 128	> 128	inactive
O=C(OCc1ccccc1)c1coc(-c2ccc(Cl)c(F)c2)n1	22.4 (≈ 7.43 µg/mL)	2.87 (≈ 0.952 µg/mL)	inactive
N#Cc1cccc(-c2nc(C(=O)OCc3ccccc3)co2)c1	60.5 (≈ 18.4 µg/mL)	25.2 (≈ 7.67 µg/mL)	inactive
O=C(OCc1ccccc1)c1coc(-c2ccncc2)n1	6.1 (≈ 1.71 µg/mL)	1.42 (≈ 0.398 µg/mL)	inactive
O=C(OCc1ccccc1)c1coc(-c2cccnc2Oc2ccccc2)n1	91.4 (≈ 34 µg/mL)	6.86 (≈ 2.55 µg/mL)	inactive
COc1ccc(CNC(=O)c2coc(-c3cccc(Cl)c3)n2)cc1OC	48.1 (≈ 17.9 µg/mL)	118 (≈ 44 µg/mL)	inactive
O=C(OCc1ccccc1)[C@@H]1COC(c2cccnc2)=N1	92.9 (≈ 26.2 µg/mL)	53.3 (≈ 15 µg/mL)	inactive
O=C(OCc1ccccc1)c1coc(-c2cnccn2)n1	22.5 (≈ 6.33 µg/mL)	7.32 (≈ 2.06 µg/mL)	inactive
O=C(OCc1ccccc1)[C@@H]1COC(c2cncc(-c3ccccc3)c2)=N1	29.8 (≈ 10.7 µg/mL)	12.5 (≈ 4.48 µg/mL)	inactive
O=C(OCc1ccccc1)c1coc(-c2ccccc2P(=O)(c2ccccc2)c2ccccc2)n1	61.5 (≈ 29.5 µg/mL)	61.8 (≈ 29.6 µg/mL)	inactive
COc1ccc(C2=N[C@H](C(=O)OCc3ccccc3)CO2)cc1Cl	7.58 (≈ 2.62 µg/mL)	60.7 (≈ 21 µg/mL)	inactive
COC(=O)[C@@H]1COC(c2ccc([N+](=O)[O-])cc2)=N1	> 128	> 128	inactive
COc1ccc(C2=N[C@H](C(=O)OCc3ccccc3)CO2)cc1OC	21.6 (≈ 7.37 µg/mL)	39 (≈ 13.3 µg/mL)	inactive
CCCCOc1ccc(C2=N[C@H](C(=O)OCc3ccccc3)CO2)cc1	5.11 (≈ 1.81 µg/mL)	2.72 (≈ 0.961 µg/mL)	inactive
O=C(OCc1ccccc1)[C@@H]1COC(c2ccccc2Cl)=N1	15.2 (≈ 4.8 µg/mL)	49.9 (≈ 15.8 µg/mL)	inactive
COC(=O)[C@@H]1COC(c2ccccc2O)=N1	> 128	> 128	inactive
O=C(OCc1ccccc1)[C@@H]1COC(c2ccc(Br)nc2)=N1	21.1 (≈ 7.62 µg/mL)	22.9 (≈ 8.27 µg/mL)	inactive

Compound	MIC [1] [µM]	MIC [2] [µM]	Activity [3]
O=C(OCc1ccccc1)[C@@H]1COC(c2ccc([N+](=O)[O-])cc2OCc2ccccc2)=N1	4.86 (≈ 2.1 µg/mL)	15.6 (≈ 6.75 µg/mL)	inactive
O=C(O)[C@@H]1COC(c2cccc(Cl)c2)=N1	106 (≈ 23.9 µg/mL)	> 128	inactive
COC(=O)[C@@H]1COC(c2ccccc2OCc2ccccc2)=N1	> 128	118 (≈ 36.7 µg/mL)	inactive
Nc1ccc(C2=N[C@H](C(=O)OCc3ccccc3)CO2)cc1	26.8 (≈ 7.94 µg/mL)	25.4 (≈ 7.53 µg/mL)	inactive
COc1ccc(CC2=N[C@H](C(=O)OCc3ccccc3)CO2)cc1	> 128	> 128	inactive
O=C(OCc1ccccc1)[C@@H]1COC(Cc2ccccc2)=N1	> 128	> 128	inactive
C[C@@H]1OC(c2ccccc2OCc2ccccc2)=N[C@@H]1C(=O)OCc1ccccc1	> 128	> 128	inactive
O=C(OCc1ccccc1)c1coc(-c2ccccn2)n1	2.47 (≈ 0.692 µg/mL)	2 (≈ 0.561 µg/mL)	inactive
O=C(OCc1ccccc1)c1coc(-c2ccc(OCc3ccccc3)c(F)c2)n1	3.86 (≈ 1.56 µg/mL)	3.03 (≈ 1.22 µg/mL)	inactive
COc1ccc(-c2nc(C(=O)OCc3ccccc3)co2)cc1OC	17.5 (≈ 5.94 µg/mL)	16 (≈ 5.43 µg/mL)	inactive
O=C(OCc1ccccc1)[C@@H]1COC(c2cccc(Br)c2)=N1	52.5 (≈ 18.9 µg/mL)	24.2 (≈ 8.72 µg/mL)	inactive
O=C(OCc1ccccc1)c1coc(-c2ccc([N+](=O)[O-])cc2)n1	42.3 (≈ 13.7 µg/mL)	1.79 (≈ 0.58 µg/mL)	inactive
CC(C)Oc1ccc(-c2nc(C(=O)OCc3ccccc3)co2)cc1	3.21 (≈ 1.08 µg/mL)	1.95 (≈ 0.658 µg/mL)	inactive
O=C(OCc1ccccc1)c1coc(-c2cccnc2S(=O)(=O)c2ccccc2)n1	> 128	66.2 (≈ 27.8 µg/mL)	inactive
Cc1ccc(-c2nc(C(=O)OCc3ccccc3)co2)cc1	7.68 (≈ 2.25 µg/mL)	12.8 (≈ 3.77 µg/mL)	inactive
COc1ccc(C2=N[C@H](C(=O)OCc3ccccc3)[C@H](C)O2)cc1	37.8 (≈ 12.3 µg/mL)	54.1 (≈ 17.6 µg/mL)	inactive
O=C(OCc1ccccc1)[C@@H]1COC(c2ccc([N+](=O)[O-])cc2F)=N1	8.7 (≈ 3 µg/mL)	13 (≈ 4.48 µg/mL)	inactive
O=C(OCc1ccccc1)c1coc(-c2cccc(Br)c2)n1	6.08 (≈ 2.18 µg/mL)	1.93 (≈ 0.691 µg/mL)	inactive
O=C(OCc1ccccc1)c1coc(-c2cccnc2)n1	6.2 (≈ 1.74 µg/mL)	3.82 (≈ 1.07 µg/mL)	inactive
O=C(OCc1ccccc1)[C@@H]1COC(c2ccccn2)=N1	127 (≈ 35.9 µg/mL)	110 (≈ 31.1 µg/mL)	inactive
O=C(OCc1ccccc1)[C@@H]1COC(c2ccncc2)=N1	81.3 (≈ 23 µg/mL)	55.6 (≈ 15.7 µg/mL)	inactive
O=C(OCc1ccccc1)[C@@H]1COC(c2cnccn2)=N1	> 128	61.2 (≈ 17.3 µg/mL)	inactive
O=C(O)[C@@H]1COC(c2ccccc2O)=N1	> 128	> 128	inactive

Compound	MIC [1] [µM]	MIC [2] [µM]	Activity [3]
O=C(OCc1ccccc1)c1coc(-c2cccc(Cl)c2OCc2ccccc2)n1	> 128	5.4 (≈ 2.27 µg/mL)	inactive
O=C(OCc1ccccc1)[C@@H]1COC(c2ccc(Cl)c(F)c2)=N1	6.49 (≈ 2.17 µg/mL)	52 (≈ 17.4 µg/mL)	inactive
COc1ccccc1C1=N[C@H](C(=O)OCc2ccccc2)CO1	29.2 (≈ 9.09 µg/mL)	37 (≈ 11.5 µg/mL)	inactive
O=C(OCc1ccccc1)[C@@H]1COC(c2ccc(F)cc2[N+](=O)[O-])=N1	40.4 (≈ 13.9 µg/mL)	30.7 (≈ 10.6 µg/mL)	inactive
Cc1ccc(C2=N[C@H](C(=O)OCc3ccccc3)CO2)cn1	122 (≈ 36.2 µg/mL)	73 (≈ 21.6 µg/mL)	inactive
CCOc1ccc(C2=N[C@H](C(=O)OCc3ccccc3)CO2)cc1	30.5 (≈ 9.92 µg/mL)	60.6 (≈ 19.7 µg/mL)	inactive
Cc1oc(-c2ccccc2)nc1C(=O)O	> 128	> 128	inactive
Cc1ccc(-c2nc(C(=O)OCc3ccccc3)co2)cn1	10.2 (≈ 3 µg/mL)	3.01 (≈ 0.886 µg/mL)	inactive
COc1ccc(-c2nc(C(=O)OCc3ccccc3)c(C)o2)cc1	15.8 (≈ 5.11 µg/mL)	47.4 (≈ 15.3 µg/mL)	inactive
O=C(OCc1ccccc1)c1coc(-c2ccc([N+](=O)[O-])cc2OCc2ccccc2)n1	> 128	> 128	inactive
Cc1ccc(C2=N[C@H](C(=O)OCc3ccccc3)CO2)cc1	27.3 (≈ 8.06 µg/mL)	15.5 (≈ 4.58 µg/mL)	inactive
O=C(OCc1ccccc1)[C@@H]1COC(c2cncc(Br)c2)=N1	26.6 (≈ 9.61 µg/mL)	27.6 (≈ 9.97 µg/mL)	inactive
CCCCOc1ccc(-c2nc(C(=O)OCc3ccccc3)co2)cc1	3.83 (≈ 1.35 µg/mL)	1.76 (≈ 0.618 µg/mL)	inactive
CCCOc1ccc(-c2nc(C(=O)OCc3ccccc3)co2)cc1	1.94 (≈ 0.655 µg/mL)	3.48 (≈ 1.17 µg/mL)	inactive
O=C(OCc1ccccc1)[C@@H]1COC(c2ccc(Cl)cc2)=N1	14.9 (≈ 4.7 µg/mL)	61 (≈ 19.3 µg/mL)	inactive
COC(=O)[C@H]1N=C(c2ccccc2)O[C@H]1C	> 128	> 128	inactive
O=C(OCc1ccccc1)[C@@H]1COC(c2cccnc2Sc2ccccc2)=N1	13.4 (≈ 5.23 µg/mL)	17.8 (≈ 6.95 µg/mL)	inactive
CC(C)Oc1ccc(C2=N[C@H](C(=O)OCc3ccccc3)CO2)cc1	14.9 (≈ 5.06 µg/mL)	3.2 (≈ 1.09 µg/mL)	inactive
COC(=O)[C@@H]1COC(c2cccc(Cl)c2)=N1	68.7 (≈ 16.5 µg/mL)	> 128	inactive
C[C@@H]1OC(c2ccccc2)=N[C@@H]1C(=O)O	> 128	> 128	inactive
O=C(OCc1ccccc1)c1coc(-c2cccnc2Sc2ccccc2)n1	> 128	8 (≈ 3.11 µg/mL)	inactive
CCOc1ccc(C2=N[C@H](C(=O)OCc3ccccc3)CO2)cc1F	3.91 (≈ 1.34 µg/mL)	50.5 (≈ 17.3 µg/mL)	inactive
CCCOc1ccc(C2=N[C@H](C(=O)OCc3ccccc3)CO2)cc1	22.4 (≈ 7.6 µg/mL)	2.97 (≈ 1.01 µg/mL)	inactive

Reference: ChEMBL document CHEMBL1157845, “Structure-activity relationship of new anti-tuberculosis agents derived from oxazoline and oxazole benzyl esters” (Eur J Med Chem, 2010)
